Measured values: US20050186659A1, “Methods for protein purification” (priority 2004, published 2005)
Values joined by “and” are separate entries in the source; they are usually repeats but may differ in a detail not shown here. Identical values can stand only once.

Legend:
11β-HSD1 [1] = molecular target: T1, 11β-HSD1 (Homo sapiens, UniProt P28845); experiment: Ki values for 11β-HSD1 (stated, no method given); format: biochemical; details: range in words only
guinea pig 11β-HSD1 = molecular target: T2, guinea pig 11β-HSD1 (Cavia porcellus, UniProt Q6QLL4); experiment: GuHCl-induced inactivation (conformational stability) monitored by cortisol dehydrogenation activity; format: biochemical; details: guinea pig enzyme, control (no addition) 0.51
T2 construct: the first 23 amino acid residues (19 for the rat variant) of the protein, which includes the distal N-terminus and the transmembrane domain, were omitted; His6 (N); made in house; host or cells: E. coli BL21(DE3), pET28a derivative, fermentor culture
Description: (§1) Stability measurements. The conformational stability was examined by monitoring GuHCl-induced solvent inactivation of 11β-HSD1. Protein solutions (5-10 μM) were incubated overnight at room temperature in various concentrations of GuHCl (0-2 M) buffered with 50 mM Tris-HCl, pH 8.0. The inactivation of the enzyme was monitored by the decrease in dehydrogenase activity (25 μM cortisol, 50 μM NADP^+) using the fluorimetric assay described above. The stability data were analyzed by nonlinear regression, fitting to the equation described by Santoro and Bolen (24) using the program GraFit, version 5.0 (Erithacus Software, Staines, UK). The midpoint concentration of inactivation, Cm, was determined from the ratio, ΔG^H2O/m, of the fitted parameters.

11β-HSD1 [2] = molecular target: T1, 11β-HSD1; experiment: Yield of soluble recombinant 11β-HSD1 expressed in E. coli BL21(DE3), SDS-PAGE of cleared lysate; set-up: the first 23 amino acid residues (19 for the rat variant) of the protein, which includes the distal N-terminus and the transmembrane domain, were omitted; made in house; host or cells: E. coli BL21(DE3), pET28a derivative, co-expression of GroEL/ES; details: GroEL/ES co-overexpression in combination with inhibitor in growth medium; estimated by SDS-PAGE
Excerpt: FIGS. 1A and 1B depict expression of soluble 11β-HSD1 as analyzed by SDS-PAGE. Cleared lysates from induced cultures of BL21(DE3) containing pET28a derivatives for expression of human (FIG. 1A) and rat (FIG. 1B) 11β-HSD1. Lane 1, SeeBlue Plus2 pre-stained protein standard. lane 2, overexpression of 11β-HSD1; lane 3, co-overexpression of 11β-HSD1 and GroEL/ES; lane 4, overexpression of 11β-HSD1 in presence of the inhibitor BVT.24829; lane 5, co-overexpression of 11β-HSD1 and GroEL/ES in presence of BVT.24829.
Two different strategies were employed to optimize production of soluble 11β-HSD1. For expression of the human and rat variant, the cells were grown in shake flasks using Terrific Broth medium supplemented with 50 μg/ml kanamycin and 34 μg/ml chloramphenicol. To increase the yield of soluble human and rat 11β-HSD1, the BL21(DE3) cells were co-transformed with the plasmid pBV530, harboring the genes for the E. coli chaperonin GroEL/ES under control of the araBAD promoter. The cells were then grown at 25° C. to a cell density corresponding to an A600 value of 0.5-1.0. To induce expression of GroEL/ES, arabinose was added to a final concentration of 0.05%. 45-60 minutes after induction of the chaperonin, 0.2 mM isopropyl-β-D-thiogalactoside (IPTG) was added to initiate production of 11β-HSD1. […]

11β-HSD1 [3] = molecular target: T1, 11β-HSD1; experiment: GuHCl-induced inactivation (conformational stability) monitored by cortisol dehydrogenation activity; format: biochemical; set-up: the first 23 amino acid residues (19 for the rat variant) of the protein, which includes the distal N-terminus and the transmembrane domain, were omitted; made in house; host or cells: E. coli BL21(DE3), pET28a derivative, co-expression of GroEL/ES; details: human enzyme, control (no addition) 0.25
Description: FIG. 4 is a graph depicting inactivation of recombinant human 11β-HSD1-catalyzed cortisol dehydrogenation with GuHCl. Protein concentration was approximately 5 μM in 50 mM Tris-HCl, pH 8.0. Solutions were exposed to denaturant, and protected by additives as indicated, for 16-18 h at 4° C. (∘) no additives; (□) 50 μM NADP^+; (□) BVT.24829 inhibitor and 50 μM NADP^+.
as §1

11β-HSD1 [4] = molecular target: T1, 11β-HSD1; experiment: Active site titration, cortisol dehydrogenation by 11β-HSD1 with increasing inhibitor; format: biochemical; set-up: the first 23 amino acid residues (19 for the rat variant) of the protein, which includes the distal N-terminus and the transmembrane domain, were omitted; made in house; host or cells: E. coli BL21(DE3), pET28a derivative, co-expression of GroEL/ES; details: dehydrogenase reaction, 50 μM cortisol, 100 μM NADP+; fitted to Morrison equation; read-out: Ki^app
Description: FIG. 3 is a graph depicting active site titration of highly purified, homogenous human 11β-HSD1. Fractional velocities (vi/v0) of cortisol dehydrogenation by 11β-HSD1 were determined in presence of increasing amounts of the selective and potent inhibitor BVT.24829. […] Total protein concentration was determined by amino acid analysis (triplicate measurements) assuming a molecular mass of 31.9 kDa for the His-tagged enzyme.
Enzyme activity measurements. The dehydrogenase activity of 11β-HSD1 was assayed at 25° C. in 50 mM Tris/Cl, pH 7.4, using 50 μM cortisol and 100 μM NADP^+, with a K2 spectrofluorimeter (ISS, Champaign, Ill.). The excitation and emission wavelengths were 340 nm and 460 nm, respectively. To ensure unambiguous initial rate measurements, the enzyme addition was adjusted to give a linear fluorescence increase for at least the first 2 min of reaction. Reaction rates were calculated before and after the addition of purified 11β-HSD1 to give enzymatic rates of NADP^+ reduction. The relationship between the increase of fluorescence and the rate of NADP^+ reduction was established by generating a calibration curve using freshly prepared solutions of NADPH (0-25 μM). […] Substrate and product were monitored by UV absorbance at 240 nm and concentrations were calculated by referral to corresponding calibration curves. […]

T2 sequence (Q6QLL4 with tags, fused parts or gaps): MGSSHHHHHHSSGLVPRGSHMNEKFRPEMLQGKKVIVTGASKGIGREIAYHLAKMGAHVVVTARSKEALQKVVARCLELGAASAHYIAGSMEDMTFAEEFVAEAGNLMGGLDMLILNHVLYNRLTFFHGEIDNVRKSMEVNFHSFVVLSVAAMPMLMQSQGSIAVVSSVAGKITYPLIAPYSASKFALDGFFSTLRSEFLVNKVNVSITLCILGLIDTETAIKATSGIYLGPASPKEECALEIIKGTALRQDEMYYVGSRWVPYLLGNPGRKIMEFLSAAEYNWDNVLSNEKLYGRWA

For `Cc1c(Cl)cccc1S(=O)(=O)Nc1nc(CC(=O)N2CCN(C)CC2)cs1` [BVT.2733, 3-Chloro-2-methyl-N-{4-[2-(4-methyl-1-piperazinyl)-2-oxoethyl]-1,3-thiazol-2-yl}benzenesulfonamide], the “Ki values for 11β-HSD1” value (11β-HSD1 [1]) was “micromolar range”.

`Cc1c(Cl)cccc1S(=O)(=O)Nc1nc(CCN2CCOCC2=O)cs1` [BVT.3498, 3-chloro-2-methyl-N-{4-[2-(3-oxo-4-morpholinyl)ethyl]-1,3-thiazol-2-yl}benzenesulfonamide] was tested, and the “Ki values for 11β-HSD1” value (11β-HSD1 [1]) was “nanomolar range”.

In the case of `CCCc1ccc(S(=O)(=O)Nc2ccsc2C(=O)N(CC)CC)cc1` [BVT.4584, N,N-diethyl-(3-{[(4-propylphenyl)sulfonyl]amino}thien-2-yl)carboxamide], the “midpoint concentration, Cm, for GuHCl-induced inactivation” value (from here on “midpoint concentration, Cm”) (guinea pig 11β-HSD1; 25 μM inhibitor + cofactor 50 μM NADP+) is reported as 1.0 M and 0.98 M, the “midpoint concentration, Cm” value (guinea pig 11β-HSD1; 25 μM inhibitor added) is reported as 0.75 M and the “Ki values for 11β-HSD1” value (11β-HSD1 [1]) is reported as “micromolar range”.

With `Cc1sc(NS(=O)(=O)c2cccc(Cl)c2C)nc1CCN1CCOCC1=O` [BVT.24829, 3-chloro-2-methyl-N-{5-methyl-4-[2-(3-oxo-4-morpholinyl)ethyl]-1,3-thiazol-2-yl}benzenesulfonamide] the “improvement of yield of soluble human 11β-HSD1” value (11β-HSD1 [2]) was “approximately 60 fold”, the “Ki values for 11β-HSD1” value (11β-HSD1 [1]) was “nanomolar range” and the “midpoint concentration, Cm” value (11β-HSD1 [3]; inhibitor + cofactor 50 μM NADP+) was 0.7 M and 0.71 M. For the same compound, the “midpoint concentration, Cm” value (11β-HSD1 [3]; one equivalent of inhibitor added) was 0.51 M and the Ki (11β-HSD1 [4]) was 32 ± 1 nM.
